The values below come from the NIST ThermoML archive (doi:10.1016/j.jct.2008.02.004).

Structures are written as SMILES. Numbers after ± are expanded uncertainties.

A short description of the series: molar enthalpy of vaporization or sublimation. Conditions: 298.15 K; Liquid; calvet microcalorimetry.
In the case of `O=Cc1cccs1` [2-thiophenealdehyde], the molar enthalpy was found to be 54.9 ± 2.2 kJ/mol.

Take `CCc1ccc(C=O)s1` [2-thiophenecarboxaldehyde, 5-ethyl-]: the molar enthalpy stood at 62.2 ± 2.6 kJ/mol. Then `O=Cc1ccsc1` [3-formylthiophene], with 52.6 ± 2.4 kJ/mol; and `Cc1ccsc1C=O` [3-methyl-2-thiophenecarboxaldehyde], with 57.7 ± 2.6 kJ/mol. Then `Cc1ccc(C=O)s1` [5-methyl-2-thiophenecarbaldehyde], with 56.2 ± 2.4 kJ/mol.
